Consider 75 compounds from US11155560B2, “Substituted pyrazolo[1,5-a]pyrimidines for modulating CDK9 activity” (Kronos Bio, Inc., priority 2018, dated 2021).

Chain of CDK9/cyclin T1 (P50750 whole entry): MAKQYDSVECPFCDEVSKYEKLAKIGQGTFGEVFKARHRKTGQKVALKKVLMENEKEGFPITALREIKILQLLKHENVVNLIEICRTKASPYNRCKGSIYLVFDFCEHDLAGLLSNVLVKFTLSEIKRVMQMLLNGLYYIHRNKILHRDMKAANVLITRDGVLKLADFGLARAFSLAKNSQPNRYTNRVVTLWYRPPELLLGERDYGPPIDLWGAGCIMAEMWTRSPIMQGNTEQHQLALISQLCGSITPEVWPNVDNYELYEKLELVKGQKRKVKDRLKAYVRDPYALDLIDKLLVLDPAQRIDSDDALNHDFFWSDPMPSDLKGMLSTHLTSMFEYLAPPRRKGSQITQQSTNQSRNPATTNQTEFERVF
Chain of CDK9/cyclin T1 (O60563 whole entry partner): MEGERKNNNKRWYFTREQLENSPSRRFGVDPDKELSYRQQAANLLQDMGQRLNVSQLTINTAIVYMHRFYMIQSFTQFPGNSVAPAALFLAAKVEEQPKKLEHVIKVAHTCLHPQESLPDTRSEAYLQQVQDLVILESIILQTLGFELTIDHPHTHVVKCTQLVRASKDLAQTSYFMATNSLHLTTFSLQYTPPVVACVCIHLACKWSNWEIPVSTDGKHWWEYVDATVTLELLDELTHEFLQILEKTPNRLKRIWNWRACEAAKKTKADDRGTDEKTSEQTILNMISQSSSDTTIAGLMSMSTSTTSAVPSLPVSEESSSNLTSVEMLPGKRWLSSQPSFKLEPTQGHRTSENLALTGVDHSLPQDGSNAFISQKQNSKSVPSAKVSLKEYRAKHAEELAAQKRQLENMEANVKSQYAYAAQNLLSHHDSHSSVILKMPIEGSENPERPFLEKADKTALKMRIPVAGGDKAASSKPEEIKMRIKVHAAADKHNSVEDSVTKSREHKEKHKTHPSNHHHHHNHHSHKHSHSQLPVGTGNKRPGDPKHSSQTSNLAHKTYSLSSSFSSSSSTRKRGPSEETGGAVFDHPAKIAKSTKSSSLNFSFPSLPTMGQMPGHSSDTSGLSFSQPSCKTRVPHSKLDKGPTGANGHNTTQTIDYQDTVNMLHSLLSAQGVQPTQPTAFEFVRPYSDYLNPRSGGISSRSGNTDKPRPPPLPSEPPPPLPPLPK

This assay deals with CDK9/cyclin T1 (Homo sapiens, UniProt P50750). As to the kind of experiment: CDK9/cyclin T1 kinase inhibition, LANCE assay. The assay is classed as biochemical. Particulars: reaction time 60 minutes, 10 μM ATP, 10-dose IC50, compounds 35-126 (127-208 listed, method not stated), read-out: CDK9/cyclin T1 Potency Grade. On the procedure:
Exemplary compounds of the invention (35-126) were tested for inhibition of CDK9/cyclin T1 kinase. Using a LANCE assay (reaction time 60 minutes), the compounds were tested in 10-dose IC50 duplicate mode with a 3-fold serial dilution starting at 4.3 μM. […] Reactions were carried out at 10 μM ATP. Data was normalized to positive and negative controls and curve fits were analyzed with XLFIT5 as % inhibition vs. log [compound concentration] using a 4-parameter logistic model205. Fit=(A+((B−A)/(1+((C/x)^D)))); Res =(y-fit).
(TR-FRET usually uses a lanthanide donor and a delayed reading to cut background.)
With `CN(Cc1ccccc1)c1cc(N[C@H]2CC[C@H](N)C2)n2nccc2n1` [Compound 97], the IC50 lay within 1 to 500 nM.
On to `CCNc1cc(N[C@H]2CC[C@H](N)C2)n2nccc2n1` [Compound 98], for which the IC50 is 1 to 500 nM.
The value for `COc1cc(C)cc(-c2cc(N[C@H]3CC[C@H](N)C3)n3nccc3n2)c1` [Compound 70] was 1 to 500 nM.
For the compound `N[C@H]1CC[C@H](Nc2cc(C3CCCCC3)nc3ccnn23)C1` [Compound 206], the IC50 lay in the range of 1 to 500 nM.
In the case of `CC1(C)CC1c1cc(N[C@H]2CC[C@H](N)C2)n2nccc2n1` (stereo partly drawn) [Compound 117], the IC50 is 1 to 500 nM.
The value for `CC(C)c1cc(N[C@@H]2CCN(C)C2)n2nccc2n1` [Compound 135] was more than 1000 nM.
With `CC(C)c1cc(N[C@@H]2CC[C@@H](NC=O)C2)n2nccc2n1` [Compound 46] the figure was 1 to 500 nM.
With `N[C@H]1CC[C@H](Nc2cc(-c3ccc(C4CC4)cc3)nc3ccnn23)C1` [Compound 205] the figure was 1 to 500 nM; with `N[C@H]1CC[C@H](Nc2cc(C3CCOC3)nc3ccnn23)C1` (stereo partly drawn) [Compound 124], 501 to 1000 nM.
Take `COc1cc(N[C@@H]2CC[C@@H](N)C2)n2nccc2n1` [Compound 168]: the IC50 fell in the range of 501 to 1000 nM.
The value for `CC(C)c1cc(N[C@@H]2CC[C@@H](NC(=N)N)C2)n2nccc2n1` [Compound 157] was 1 to 500 nM; that for `CC(=O)Nc1cc(N[C@@H]2CC[C@@H](N)C2)n2nccc2n1` [Compound 128] was more than 1000 nM.
Regarding `COCCNc1cc(N[C@H]2CC[C@H](N)C2)n2nccc2n1` [Compound 179], the IC50 fell in the range of 501 to 1000 nM.
The value for `CN/C(=N/C#N)N[C@@H]1CC[C@@H](Nc2cc(C(C)C)nc3ccnn23)C1` [Compound 63] was 1 to 500 nM; that for `N[C@H]1CC[C@H](Nc2cc(-c3cccc(F)c3)nc3ccnn23)C1` [Compound 111] was 1 to 500 nM; that for `COc1cc(N[C@@H]2CC[C@@H](N)C2)n2nccc2n1` [Compound 77] was 501 to 1000 nM.
With `CCc1cc(N[C@H]2CC[C@H](N)C2)n2nccc2n1` [Compound 47] the figure was 1 to 500 nM; with `N[C@H]1CC[C@H](Nc2cc(C#CC3CC3)nc3ccnn23)C1` [Compound 120], 1 to 500 nM.
With `CCOc1cc(N[C@H]2CC[C@H](N)C2)n2nccc2n1` [Compound 91] the figure was 501 to 1000 nM; with `CCN(CC)c1cc(N[C@H]2CC[C@H](N)C2)n2nccc2n1` [Compound 170], 1 to 500 nM.
For `N[C@H]1CC[C@H](Nc2cc(-c3ccc(C4CC4)cc3)nc3ccnn23)C1` [Compound 114], the IC50 was 1 to 500 nM.
With `N[C@H]1CC[C@H](Nc2cc(C#CC3CCCCC3)nc3ccnn23)C1` [Compound 119] the figure was 1 to 500 nM; with `Cn1cncc1-c1cc(N[C@H]2CC[C@H](N)C2)n2nccc2n1` [Compound 174], 1 to 500 nM; with `O=C(N[C@H]1CC[C@H](Nc2cc(C3CC3)nc3ccnn23)C1)OCc1ccccc1` [Compound 175], more than 1000 nM.
As for `CC(C)c1cc(N[C@H]2CC[C@H](N)C2)n2nc(N)cc2n1` [Compound 183], the IC50 is more than 1000 nM.
With `N[C@H]1CC[C@H](Nc2cc(Nc3ccc4ccccc4c3)nc3ccnn23)C1` [Compound 162] the figure was 1 to 500 nM; with `Cc1cnn2c(N[C@@H]3CC[C@@H](NC(=O)OCc4ccccc4)C3)cc(C(C)C)nc12` [Compound 87], 1 to 500 nM.
With `COc1cc(Cl)cc(-c2cc(N[C@H]3CC[C@H](N)C3)n3nccc3n2)c1` [Compound 165] the figure was 1 to 500 nM; with `COc1cc(-c2cc(N[C@H]3CC[C@H](N)C3)n3nccc3n2)ccn1` [Compound 101], 1 to 500 nM.
The value for `CC(C)c1cc(N[C@@H]2CC[C@@H](NC(=O)OCc3ccccc3)C2)n2nccc2n1` [Compound 141] was 1 to 500 nM; that for `COCCNc1cc(N[C@H]2CC[C@H](N)C2)n2nccc2n1` [Compound 88] was 501 to 1000 nM; that for `Cn1cncc1-c1cc(N[C@H]2CC[C@H](NC=O)C2)n2nccc2n1` [Compound 169] was 501 to 1000 nM.
With `N[C@H]1CC[C@H](Nc2cc(-c3ccc(F)cc3)nc3ccnn23)C1` [Compound 107], the IC50 fell in the range of 1 to 500 nM.
The value for `CC(C)c1cc(N[C@@H]2CC[C@@H](NC(=O)OCc3ccccc3)C2)n2ncc(Cl)c2n1` [Compound 67] was 1 to 500 nM; that for `CC(C)Cc1cc(N[C@H]2CC[C@H](N)C2)n2ncc(Cl)c2n1` [Compound 76] was 1 to 500 nM; that for `CCC(CC)c1cc(N[C@H]2CC[C@H](NC(=O)c3cnc(C)cn3)C2)n2nccc2n1` [Compound 57] was 1 to 500 nM.
The value for `N[C@H]1CC[C@H](Nc2cc(C3=CCOC3)nc3ccnn23)C1` [Compound 126] was 501 to 1000 nM.
With `N[C@H]1CC[C@H](Nc2cc(Nc3ccc4ccccc4c3)nc3ccnn23)C1` [Compound 71], the IC50 was 1 to 500 nM.
For the compound `CC(C)N(C)c1cc(N[C@H]2CC[C@H](N)C2)n2nccc2n1` [Compound 86], the IC50 was 1 to 500 nM.
With `N[C@H]1CC[C@H](Nc2cc(N3CCOCC3)nc3ccnn23)C1` [Compound 163] the figure was 1 to 500 nM; with `CC1CCC(c2cc(N[C@H]3CC[C@H](N)C3)n3nccc3n2)CC1` (stereo partly drawn) [Compound 122], 1 to 500 nM; with `N[C@H]1CC[C@H](Nc2cc(Nc3cccc4ccccc34)nc3ccnn23)C1` [Compound 80], 1 to 500 nM.
With `CN1CCN(c2cc(N[C@H]3CC[C@H](N)C3)n3nccc3n2)CC1` [Compound 99] the figure was more than 1000 nM; with `CC(C)c1cc(N[C@@H]2CC[C@@H](N(O)C(N)=O)C2)n2nccc2n1` [Compound 151], 1 to 500 nM.
With `Cc1cnn2c(N[C@H]3CC[C@H](N)C3)cc(CC(C)C)nc12` [Compound 184] the figure was 1 to 500 nM; with `CN1CCN(c2cc(N[C@H]3CC[C@H](N)C3)n3nccc3n2)CC1=O` [Compound 102], 1 to 500 nM; with `COCCN[C@@H]1CC[C@@H](Nc2cc(C(C)C)nc3ccnn23)C1` [Compound 150], 1 to 500 nM.
Consider `N[C@H]1CC[C@H](Nc2cc(C3CCCCC3)nc3ccnn23)C1` [Compound 115], for which the IC50 fell in the range of 1 to 500 nM.
The value for `CC(C)c1cc(N[C@@H]2CC[C@@H](NC(=O)OCc3ccccc3)C2)n2nccc2n1` [Compound 50] was 1 to 500 nM; that for `COC(=O)N[C@@H]1CC[C@@H](Nc2cc(C(C)C)nc3ccnn23)C1` [Compound 145] was 1 to 500 nM; that for `N[C@H]1CC[C@H](Nc2cc(-c3ccc4c(c3)OCO4)nc3c(Cl)cnn23)C1` [Compound 104] was 1 to 500 nM.
The value for `N[C@H]1CC[C@H](Nc2cc(-c3cccc(Cl)c3)nc3ccnn23)C1` [Compound 166] was 1 to 500 nM; that for `CN(CCO)c1cc(N[C@H]2CC[C@H](N)C2)n2nccc2n1` [Compound 181] was 1 to 500 nM.
The value for `N[C@@H]1CC[C@@H](Nc2cc(C3CCC3)nc3ccnn23)C1` [Compound 42] was 1 to 500 nM.
`Cc1cc(C)cc(-c2cc(N[C@H]3CC[C@H](N)C3)n3nccc3n2)c1` [Compound 105]: the IC50 fell in the range of 1 to 500 nM.
Consider `CCc1cc(N[C@H]2CC[C@H](N)C2)n2nccc2n1` [Compound 138], for which the IC50 was 1 to 500 nM.
The value for `CC(C)c1cccc(-c2cc(N[C@H]3CC[C@H](N)C3)n3nccc3n2)c1` [Compound 121] was 1 to 500 nM.
Consider `N[C@H]1CC[C@H](Nc2cc(-c3cc(Cl)cc(Cl)c3)nc3ccnn23)C1` [Compound 173], for which the IC50 is 1 to 500 nM.
The value for `CC(C)c1ccc(-c2cc(N[C@H]3CC[C@H](N)C3)n3nccc3n2)cc1` [Compound 108] was 1 to 500 nM.
With `CCC(CC)c1cc(N[C@H]2CC[C@H](N(C)CCOC)C2)n2nccc2n1` [Compound 153] the figure was 1 to 500 nM; with `N[C@H]1CC[C@H](Nc2cc(C3CCC(F)(F)CC3)nc3ccnn23)C1` [Compound 125], 1 to 500 nM.
The value for `N[C@H]1CC[C@H](Nc2cc(-c3ccc4c(c3)OCO4)nc3ccnn23)C1` [Compound 152] was 1 to 500 nM.
For `Cn1ccc(-c2cc(N[C@H]3CC[C@H](N)C3)n3nccc3n2)n1` [Compound 116], the IC50 was 1 to 500 nM.
The value for `CCC(CC)c1cc(N[C@H]2CC[C@H](N(C)CCOC)C2)n2nccc2n1` [Compound 62] was 1 to 500 nM; that for `CC(C)N(C)c1cc(N[C@H]2CC[C@H](N)C2)n2nccc2n1` [Compound 177] was 1 to 500 nM.
On to `CC(C)c1cc(N[C@H]2CC[C@H](N)C2)n2ncc(C#N)c2n1` [Compound 64], for which the IC50 is 1 to 500 nM.
With `CCOc1cc(N[C@H]2CC[C@H](N)C2)n2nccc2n1` [Compound 182] the figure was 501 to 1000 nM.
The value for `CCNc1cc(N[C@H]2CC[C@H](N)C2)n2nccc2n1` [Compound 189] was 1 to 500 nM; that for `N[C@@H]1CC[C@@H](Nc2cc(C3CC3)nc3ccnn23)C1` [Compound 134] was 1 to 500 nM.
As to `Cc1cnn2c(N[C@@H]3CC[C@@H](NC(=O)OCc4ccccc4)C3)cc(C(C)C)nc12` [Compound 178], the IC50 lay in the range of 1 to 500 nM.
With `CC(C)c1cc(N[C@@H]2CC[C@@H](NC(=O)OCc3ccccc3)C2)n2ncc(Cl)c2n1` [Compound 158] the figure was 1 to 500 nM.
The value for `CCC(C)c1cc(N[C@@H]2CC[C@@H](NC=O)C2)n2nccc2n1` (stereo partly drawn) [Compound 143] was 1 to 500 nM; that for `CC(C)c1ccc(-c2cc(N[C@H]3CC[C@H](N)C3)n3nccc3n2)cc1` [Compound 199] was 1 to 500 nM.
The value for `CN(CCO)c1cc(N[C@H]2CC[C@H](N)C2)n2nccc2n1` [Compound 90] was 1 to 500 nM.
Regarding `CC(C)(C#N)c1ccc(-c2cc(N[C@H]3CC[C@H](N)C3)n3nccc3n2)cc1` [Compound 113], the IC50 fell in the range of 1 to 500 nM.
